According to ChEMBL document CHEMBL6109088 (J Med Chem, 2025):

Columns and labels:
in vivo [1] = conditions: male, Wistar Hannover, rat, po, 10 mg/kg
in vivo [2] = conditions: male, Wistar Hannover, rat, po, 10 mg/kg; remark: listed apart in the source
in vivo [3] = conditions: male, Wistar Hannover, rat, po, 10 mg/kg; remark: listed apart in the source
in vivo [4] = conditions: male, Wistar Hannover, rat, plasma, iv, 1 mg/kg
in vivo [5] = conditions: male, Wistar Hannover, rat, iv, 1 mg/kg
in vivo [6] = conditions: male, Wistar Hannover, rat, iv, 1 mg/kg; remark: listed apart in the source
in vivo [7] = conditions: male, Wistar Hannover, rat, po, 10 mg/kg; remark: listed apart in the source
in vivo [8] = conditions: male, Wistar Hannover, rat, po, 10 mg/kg; remark: listed apart in the source
in vivo [9] = conditions: male, cynomolgus monkey, po, 10 mg/kg
in vivo [10] = conditions: male, cynomolgus monkey, po, 10 mg/kg; remark: listed apart in the source
in vivo [11] = conditions: male, cynomolgus monkey, iv, 1 mg/kg
in vivo [12] = conditions: male, cynomolgus monkey, po, 10 mg/kg; remark: listed apart in the source
in vivo [13] = conditions: male, cynomolgus monkey, plasma, iv, 1 mg/kg
in vivo [14] = conditions: male, cynomolgus monkey, iv, 1 mg/kg; remark: listed apart in the source
in vivo [15] = conditions: male, cynomolgus monkey, iv, 1 mg/kg; remark: listed apart in the source
in vivo [16] = conditions: male, cynomolgus monkey, po, 10 mg/kg; remark: listed apart in the source
in vivo [17] = conditions: male, Beagle, dog, po, 10 mg/kg
in vivo [18] = conditions: male, Beagle, dog, po, 10 mg/kg; remark: listed apart in the source
in vivo [19] = conditions: male, Beagle, dog, plasma, iv, 1 mg/kg
in vivo [20] = conditions: male, Beagle, dog, iv, 1 mg/kg
in vivo [21] = conditions: male, Beagle, dog, iv, 1 mg/kg; remark: listed apart in the source
in vivo [22] = conditions: male, Beagle, dog, po, 10 mg/kg; remark: listed apart in the source
in vivo [23] = conditions: male, Wistar Hannover, rat, iv, 1 mg/kg; remark: listed apart in the source
in vivo [24] = conditions: rat, po
in vivo [25] = conditions: male, Wistar Hannover, rat, iv, 1 mg/kg; remark: listed apart in the source
in vitro [26] = conditions: dog, MDCK
in vitro [27] = conditions: human, liver microsomes
physchem = conditions: octanol/water
SARS-CoV-2 = assay: microbe, parasite or virus in culture; conditions: Severe acute respiratory syndrome coronavirus 2, USA-WA1/2020, Vero C1008

With CC(C)[C@H](NC(=O)C(F)(F)F)C(=O)N1C[C@H]2[C@@H]([C@H]1C(=O)N[C@@H](C[C@@H]1CCNC1=O)C(=O)c1nc3ccccc3s1)C2(C)C the Cmax at 4 h (in vivo [1]) was 521 ng/mL, the Tmax at 4 h (in vivo [2]) was 0.67 h and the AUC(0-inf) at 4 h (in vivo [3]) was 2310 ng·h/mL. It also gave a clearance at 4 h (in vivo [4]) of 31 mL/min/kg, a half-life at 4 h (in vivo [5]) of 6.8 h and a Vd at 4 h (in vivo [6]) of 2.16 L/kg. It also gave a half-life at 4 h (in vivo [7]) of 3.39 h, a bioavailability at 4 h (in vivo [8]) of 54.3% and a Cmax (in vivo [9]) of 331 ng/mL. It also gave a Tmax (in vivo [10]) of 1.5 h, an AUC(0-inf) (in vivo [11]) of 977 ng·h/mL and an AUC(0-inf) (in vivo [12]) of 505 ng·h/mL. It also gave a clearance (in vivo [13]) of 26 mL/min/kg, a Vd (in vivo [14]) of 0.58 L/kg and a half-life (in vivo [15]) of 1.08 h. For the same molecule, the bioavailability (in vivo [16]) was 7.85%, the Cmax (in vivo [17]) was 383 ng/mL and the Tmax (in vivo [18]) was 0.75 h. It also gave a clearance (in vivo [19]) of 20.7 mL/min/kg, a Vd (in vivo [20]) of 1.1 L/kg and a half-life (in vivo [21]) of 0.9 h. For the same molecule, the half-life (in vivo [22]) was 4.43 h, the AUC(0-inf) at 4 h (in vivo [23]) was 632 ng·h/mL and the bioavailability (in vivo [24]) was 54%. The AUC(0-inf) at 4 h (in vivo [25]) was 538 ng·h/mL, the Papp A→B (in vitro [26]) was 13.1 ×10⁻⁶ cm/s and the microsomal CLint (in vitro [27]) was 30.3 µL/min/mg. The logD (physchem) was 3 and the EC50 (SARS-CoV-2) was 85.3 nM.

For CC(C)[C@H](NS(C)(=O)=O)C(=O)N1C[C@H]2[C@@H]([C@H]1C(=O)N[C@@H](C[C@@H]1CCNC1=O)C(=O)c1nc3ccccc3s1)C2(C)C, the bioavailability (in vivo [24]) was 7%, the Papp A→B (in vitro [26]) was 1.7 ×10⁻⁶ cm/s and the microsomal CLint (in vitro [27]) was 70 µL/min/mg. The logD (physchem) was 2.4 and the EC50 (SARS-CoV-2) was 909 nM.

CC(C)[C@H](NC(=O)C(F)(F)F)C(=O)N1C[C@H]2[C@@H]([C@H]1C(=O)N[C@@H](C[C@@H]1CCNC1=O)C(=O)c1nc3cc(C(F)(F)F)ccc3s1)C2(C)C showed a Papp A→B (in vitro [26]) of 8.8 ×10⁻⁶ cm/s, a microsomal CLint (in vitro [27]) of 45.3 µL/min/mg and an EC50 (SARS-CoV-2) of 64.8 nM.

CN(C)C(=O)N[C@H](C(=O)N1C[C@H]2[C@@H]([C@H]1C(=O)N[C@H](C#N)C[C@@H]1CCNC1=O)C2(C)C)C(C)(C)C gave a Papp A→B (in vitro [26]) of 0.383 ×10⁻⁶ cm/s, a microsomal CLint (in vitro [27]) of 22.2 µL/min/mg and an EC50 (SARS-CoV-2) of 1780 nM.

Molecule CC(C)[C@H](NC(=O)C(F)(F)F)C(=O)N1C[C@H]2[C@@H]([C@H]1C(=O)N[C@@H](C[C@@H]1CCNC1=O)C(=O)c1nc3ccccc3o1)C2(C)C has a bioavailability (in vivo [24]) of 18%, a Papp A→B (in vitro [26]) of 2.1 ×10⁻⁶ cm/s and a microsomal CLint (in vitro [27]) of 7.3 µL/min/mg. For the same molecule, the EC50 (SARS-CoV-2) was 207 nM.

CC(C)(C)[C@H](NS(C)(=O)=O)C(=O)N1C[C@H]2[C@@H]([C@H]1C(=O)N[C@H](C#N)C[C@@H]1CCNC1=O)C2(C)C showed a bioavailability (in vivo [24]) of under 1%, a Papp A→B (in vitro [26]) of under 0.193 ×10⁻⁶ cm/s and a microsomal CLint (in vitro [27]) of 11.4 µL/min/mg. For the same molecule, the EC50 (SARS-CoV-2) was 540 nM.

For COc1ccc2nc(C(=O)[C@H](C[C@@H]3CCNC3=O)NC(=O)[C@@H]3[C@@H]4[C@H](CN3C(=O)[C@@H](NC(=O)C(F)(F)F)C(C)C)C4(C)C)sc2c1, the Papp A→B (in vitro [26]) was 13.8 ×10⁻⁶ cm/s, the microsomal CLint (in vitro [27]) was 20.7 µL/min/mg and the EC50 (SARS-CoV-2) was 611 nM.

Molecule CC(C)[C@H](NC(=O)C(F)(F)F)C(=O)N1C[C@H]2[C@@H]([C@H]1C(=O)N[C@@H](C[C@@H]1CCNC1=O)C(=O)c1noc(-c3ccccc3)n1)C2(C)C has a Papp A→B (in vitro [26]) of 3.5 ×10⁻⁶ cm/s, a microsomal CLint (in vitro [27]) of 40.5 µL/min/mg and an EC50 (SARS-CoV-2) of 194 nM.

In the case of CC(C)[C@H](NC(=O)C(F)(F)F)C(=O)N1C[C@H]2[C@@H]([C@H]1C(=O)N[C@@H](C[C@@H]1CCNC1=O)C(=O)c1noc(C(C)(C)C)n1)C2(C)C, the Papp A→B (in vitro [26]) is reported as 0.5 ×10⁻⁶ cm/s, the microsomal CLint (in vitro [27]) is reported as under 7 µL/min/mg and the EC50 (SARS-CoV-2) is reported as 625 nM.

In the case of COc1cccc2[nH]c(C(=O)N[C@@H](CC(C)(C)C)C(=O)N[C@@H](C[C@@H]3CCNC3=O)C(=O)c3nc4ccccc4s3)cc12, the bioavailability (in vivo [24]) is reported as under 1%, the Papp A→B (in vitro [26]) is reported as 4.3 ×10⁻⁶ cm/s and the microsomal CLint (in vitro [27]) is reported as 350 µL/min/mg. It also gave a logD (physchem) of 4 and an EC50 (SARS-CoV-2) of 383 nM.

CC(C)(C)[C@H](NC(=O)CC(F)(F)F)C(=O)N1C[C@H]2[C@@H]([C@H]1C(=O)N[C@H](C#N)C[C@@H]1CCNC1=O)C2(C)C showed a Papp A→B (in vitro [26]) of 0.916 ×10⁻⁶ cm/s, a microsomal CLint (in vitro [27]) of 12.7 µL/min/mg and an EC50 (SARS-CoV-2) of 850 nM.

COc1cccc2[nH]c(C(=O)N[C@@H](CC(C)C)C(=O)N[C@@H](C[C@@H]3CCNC3=O)C(=O)CO)cc12 [PF-00835231] gave a bioavailability (in vivo [24]) of under 0.5%, a Papp A→B (in vitro [26]) of under 0.207 ×10⁻⁶ cm/s and a microsomal CLint (in vitro [27]) of 7 µL/min/mg. For the same molecule, the logD (physchem) was 1.7.
